Experiments:
[1] = system: mice; assay: Formalin assay for persistent inflammatory pain (phase II) in mice; format: in vivo, mouse; conditions: 5% formalin s.c. right hindpaw; compound s.c. same paw 10 minutes after formalin; 10-30 minutes post formalin; across doses
Protocol: This example illustrates the effect of AP4AmA in mice in phase II of the formalin assay for persistent inflammatory pain. In brief, mice were injected 20 microliters of a 5% full strength formalin solution subcutaneously (s.c.) into the dorsal aspect of the right hindpaw. The mice were returned to the observation cage. The mice were injected 10 microliters s.c. into the same dorsal aspect of the right hindpaw with either vehicle or AP4AmA in varying concentrations 10 minutes after the formalin injection. […]

[2] = system: mice; assay: Phenylbenzoquinone-induced abdominal constriction assay for visceral pain in mice; format: in vivo, mouse
Protocol: (§1) These examples illustrate the effects of AP4AmA in two similar models of abdominal constriction; acetic acid-induced and phenylbenzoquinone-induced constrictions in mice. The method employed in FIGS. 2A and […] was a modification of the abdominal constriction test described by Collier et. al (Collier, H, O. et. al, Br. J. Pharmacol. Chemother. 32:295-310 (1968)).
Briefly, in FIG. 2B, each animal received an i.p. injection of 0.02% phenylbenzoquinone in a volume of 10 mL/kg. The mouse was placed in an observation chamber shortly after the acetic acid injection and allowed to explore. Testing started five minutes after the acetic acid injection and consisted of 5 minutes of observation during which the number of abdominal constrictions was counted. Abdominal constriction was defined as a lengthwise stretching of the torso with concave arching of the back. AP4AmA and vehicle were administered i.p., in a volume of 10 mL/kg, 3 minutes prior to the administration of acetic acid while morphine was administered i.p., in a volume of 10 mL/kg, 30 minutes prior to the administration of acetic acid.

[3] = system: rats; assay: Spinal Nerve (L5/L6) Ligation model for neuropathic pain (tactile allodynia, von Frey) in rats; format: in vivo; conditions: rat
[4] = system: mice; assay: Hotplate assay for acute pain in mice; format: in vivo, mouse
Protocol: The action of P^1-5′-[2′-(O)—,3′-(O)-(benzyl)methylenedioxy]adenosine-P^4-5″-adenosine tetraphosphate, (AP4AmA; AP4A-2′, 3′-mono-acetal with phenylacetaldehyde) on mice in the hotplate model illustrates the analgesic affect of compounds of Formula I. The temperature of the hot plate was set at 55 degrees Celsius. Animals were administered subcutaneously AP4AmA or saline into the dorsal aspect of both hind paws in a volume of 20 microliters. This administration occurred 5 minutes prior to placement on the hotplate. Morphine was administered subcutaneously into the back nape of the mouse's neck in a volume of 10 mL/kg.
The time to hindpaw lick was used as the efficacy endpoint.

[5] = system: mice; assay: Acetic acid-induced abdominal constriction assay for visceral pain in mice; format: in vivo, mouse
Protocol: as §1
Briefly, in FIG. 2A, each animal, received an intraperitoneal (i.p.) injection of 0.9% acetic acid in a volume of 10 mL/kg. The mouse was placed in an observation chamber shortly after the acetic acid injection and allowed to explore. Testing started five minutes after the acetic acid injection and consisted of 10 minutes of observation during which the number of abdominal constrictions was counted. Abdominal constriction was defined as a lengthwise stretching of the torso with concave arching of the back. AP4AmA and vehicle were administered i.p., in a volume of 10 mL/kg, 3 minutes prior to the administration of acetic acid while Morphine was administered i.p., in a volume of 10 mL/kg, 25 minutes prior to the administration of acetic acid.

[6] = system: rats; conditions: Jarvis and Kowaluk, 2001; cited from earlier work
[7] = mouse hotplate, highest dose of AP4AmA

| Compound | duration of time spent licking the inflamed hind paw [1] | number of abdominal constrictions ([2]; 0.02% phenylbenzoquinone i.p., compound i.p. 3 minutes prior, across doses) | number of abdominal constrictions, compared with morphine ([2]; phenylbenzoquinone model, 30 mg/kg AP4AmA i.p.) | gram force required to induce withdrawal of the allodynic hindpaw, compared with morphine ([3]; von Frey filaments) | gram force required to induce withdrawal of the allodynic hindpaw, compared with vehicle control ([3]; von Frey filaments) | reversal of allodynia ([3]; 0.03 mg/mL, 50 microliters subplantar, 60 minutes prior to testing, versus morphine i.p. 16 mg/kg) | time to hindpaw lick, maximal percent effect (MPE %) ([4]; mouse hotplate 55 degrees Celsius, s.c. into both hind paws 5 minutes before, across doses) | time to hindpaw lick, maximal percent effect, compared with morphine [4, 7] | time to hindpaw lick, maximal percent effect, compared with vehicle control [4, 7] | number of abdominal constrictions ([5]; 0.9% acetic acid i.p., compound i.p. 3 minutes prior, across doses) | number of abdominal constrictions, compared with morphine ([5]; acetic acid model, 100 mg/kg AP4AmA i.p.) | antinociceptive effects [6] |
| --- | --- | --- | --- | --- | --- | --- | --- | --- | --- | --- | --- | --- |
| Nc1ncnc2c1ncn2[C@@H]1O[C@H](COP(=O)(O)OP(=O)(O)OP(=O)(O)OP(=O)(O)OC[C@H]2O[C@@H](n3cnc4c(N)ncnc43)[C@@H]3OC(Cc4ccccc4)O[C@@H]32)[C@@H](O)[C@H]1O (stereo partly drawn) [AP4AmA, P^1-5′-[2′-(O)—,3′-(O)-(benzyl)methylenedioxy]adenosine-P^4-5″-adenosine tetraphosphate] | dose dependent pharmacological effect | dose dependent pharmacological effect | not statistically different from morphine | not statistically different from morphine | significantly different from vehicle control | can reverse the allodynia in the rat to an equivalent level as morphine | dose dependent pharmacological effect | statistically equivalent to morphine | statistically significant from vehicle control | dose dependent pharmacological effect | not statistically different from morphine | – |
| TNP-ATP | – | – | – | – | – | – | – | – | – | – | – | produce antinociceptive effects in rats |
